Experimental data reported in US6919338B2, “Substituted quinazoline derivatives and their use as inhibitors of aurora-2 kinase” (AstraZeneca AB, priority 2000, dated 2005).

Key:
[1] = tested on: human tumour cell line MCF7; assay: In vitro cell proliferation assay; assay type: cell-based; details: MCF7, 72 h, MCF-7 cells, 3 days with compound, CyQUANT, read-out: concentration giving 50% inhibition of cell proliferation
Source text: (a) In Vitro Cell Proliferation Assay
This assay determines the ability of a test compound to inhibit the growth of adherent mammalian cell lines, for example the human tumour cell line MCF7. MCF-7 (ATCC HTB-22) or other adherent cells were typically seeded at 1×10^3 cells per well (excluding the peripheral wells) in DMEM (Sigma Aldrich) without phenol red, plus 10% foetal calf serum, 1% L-glutamine and 1% penicillin/streptomycin in 96 well tissue culture treated clear plates (Costar). The following day (day 1), the media was removed from a no treatment control plate and the plate stored at −80° C. The remaining plates were dosed with compound (diluted from 10 mM stock in DMSO using DMEM (without phenol red, 10% FCS, 1% L-glutamine, 1% penicillin/streptomycin). Untreated control wells were included on each plate. After 3 days in the presence/absence of compound (day 4) the media was removed and the plates stored at −80° C. Twenty four hours later the plates were thawed at room temperature and cell density determined using the CyQUANT cell proliferation assay kit (c-7026/c-7027 Molecular Probes Inc.) according to manufacturers directions. Briefly, 200 μl of a cell lysis/dye mixture (10 μl of 20× cell lysis buffer B, 190 μl of sterile water, 0.25 μl of CYQUANT GR dye) was added to each well and the plates incubated at room temperature for 5 minutes in the dark. […]

MCF7 cells = assay: In vitro cell cycle analysis assay; assay type: cell-based, human; details: 24 hours, 10 μM Compound 52 (text b2735 says 1 μM)
Experimental: (a) In Vitro Cell Cycle Analysis Assay
This assay determines the ability of a test compound to arrest cells in specific phases of the cell cycle. Many different mammalian cell lines could be used in this assay and MCF7 cells are included here as an example. MCF-7 cells were seeded at 3×10^5 cells per T25 flask (Costar) in 5 ml DMEM (no phenol red 10% FCS, 1% L-glutamine 1% penicillin/streptomycin). Flasks were then incubated overnight in a humidified 37° C. incubator with 5% CO2. The following day 1 ml of DMEM (no phenol red 10% FCS, 1% L-glutamine 1% penicillin/streptomycin) carrying the appropriate concentration of test compound solubilised in DMSO was added to the flask. A no compound control treatments was also included (0.5% DMSO). The cells were then incubated for a defined time (usually 24 hours) with compound. […] The samples were then transferred to LPS tubes and DNA content per cell analysed by Fluorescence activated cell sorting (FACS) using a FACScan flow cytometer (Becton Dickinson). Typically 25000 events were counted and recorded using CellQuest v1.1 software (Verity Software). Cell cycle distribution of the population was calculated using Modfit software (Verity Software) and expressed as percentage of cells in G0/G1, S and G2/M phases of the cell cycle. […]

aurora2 kinase = target: T1, aurora2 kinase (Homo sapiens, UniProt O14965); assay: In vitro aurora2 kinase inhibition test; assay type: biochemical
T1 construct: made in house; host or cells: Spodoptera frugiperda Sf21 insect cells (baculovirus)
T1 sequence (O14965 1-403): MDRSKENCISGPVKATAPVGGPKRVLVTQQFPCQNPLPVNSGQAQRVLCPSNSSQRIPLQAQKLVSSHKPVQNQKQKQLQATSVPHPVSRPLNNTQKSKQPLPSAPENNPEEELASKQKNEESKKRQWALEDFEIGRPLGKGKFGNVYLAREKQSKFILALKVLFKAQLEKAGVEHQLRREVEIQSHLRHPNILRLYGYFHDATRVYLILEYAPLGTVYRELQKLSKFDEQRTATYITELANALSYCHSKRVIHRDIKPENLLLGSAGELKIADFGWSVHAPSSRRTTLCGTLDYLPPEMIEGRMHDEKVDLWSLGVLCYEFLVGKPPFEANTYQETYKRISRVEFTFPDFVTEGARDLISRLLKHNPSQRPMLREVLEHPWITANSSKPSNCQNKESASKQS

SMILES: COc1cc2c(Nc3nc(CC(=O)Nc4ccc(F)cc4)cs3)ncnc2cc1OCCCN1CCOCC1 [Compound 52]
- IC50 [1]: 0.616 µM
- % Cells in G2/M (MCF7 cells): >50%
- IC50 (aurora2 kinase): 0.167 µM
